According to PMC6934184, “Selective DNA-PKcs inhibition extends the therapeutic index of localized radiotherapy and chemotherapy” (The Journal of Clinical Investigation, 2019):

Target: T1, MINK1 (Homo sapiens, UniProt Q8N4C8)
T1 construct: purchased Thermo Fisher Scientific (Life Technologies) SelectScreen
Experiment: SelectScreen Z'LYTE
Assay type: biochemical
Procedure, shortened: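 NU5455 was profiled across the SelectScreen Broad panel of kinase activity and binding assays. Z'LYTE reactions such as CSF1R ran at apparent Km ATP, while the Adapta CAMK1 assay used ATP listed as 10. Values are given as percent.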

T1 sequence (Q8N4C8 whole entry): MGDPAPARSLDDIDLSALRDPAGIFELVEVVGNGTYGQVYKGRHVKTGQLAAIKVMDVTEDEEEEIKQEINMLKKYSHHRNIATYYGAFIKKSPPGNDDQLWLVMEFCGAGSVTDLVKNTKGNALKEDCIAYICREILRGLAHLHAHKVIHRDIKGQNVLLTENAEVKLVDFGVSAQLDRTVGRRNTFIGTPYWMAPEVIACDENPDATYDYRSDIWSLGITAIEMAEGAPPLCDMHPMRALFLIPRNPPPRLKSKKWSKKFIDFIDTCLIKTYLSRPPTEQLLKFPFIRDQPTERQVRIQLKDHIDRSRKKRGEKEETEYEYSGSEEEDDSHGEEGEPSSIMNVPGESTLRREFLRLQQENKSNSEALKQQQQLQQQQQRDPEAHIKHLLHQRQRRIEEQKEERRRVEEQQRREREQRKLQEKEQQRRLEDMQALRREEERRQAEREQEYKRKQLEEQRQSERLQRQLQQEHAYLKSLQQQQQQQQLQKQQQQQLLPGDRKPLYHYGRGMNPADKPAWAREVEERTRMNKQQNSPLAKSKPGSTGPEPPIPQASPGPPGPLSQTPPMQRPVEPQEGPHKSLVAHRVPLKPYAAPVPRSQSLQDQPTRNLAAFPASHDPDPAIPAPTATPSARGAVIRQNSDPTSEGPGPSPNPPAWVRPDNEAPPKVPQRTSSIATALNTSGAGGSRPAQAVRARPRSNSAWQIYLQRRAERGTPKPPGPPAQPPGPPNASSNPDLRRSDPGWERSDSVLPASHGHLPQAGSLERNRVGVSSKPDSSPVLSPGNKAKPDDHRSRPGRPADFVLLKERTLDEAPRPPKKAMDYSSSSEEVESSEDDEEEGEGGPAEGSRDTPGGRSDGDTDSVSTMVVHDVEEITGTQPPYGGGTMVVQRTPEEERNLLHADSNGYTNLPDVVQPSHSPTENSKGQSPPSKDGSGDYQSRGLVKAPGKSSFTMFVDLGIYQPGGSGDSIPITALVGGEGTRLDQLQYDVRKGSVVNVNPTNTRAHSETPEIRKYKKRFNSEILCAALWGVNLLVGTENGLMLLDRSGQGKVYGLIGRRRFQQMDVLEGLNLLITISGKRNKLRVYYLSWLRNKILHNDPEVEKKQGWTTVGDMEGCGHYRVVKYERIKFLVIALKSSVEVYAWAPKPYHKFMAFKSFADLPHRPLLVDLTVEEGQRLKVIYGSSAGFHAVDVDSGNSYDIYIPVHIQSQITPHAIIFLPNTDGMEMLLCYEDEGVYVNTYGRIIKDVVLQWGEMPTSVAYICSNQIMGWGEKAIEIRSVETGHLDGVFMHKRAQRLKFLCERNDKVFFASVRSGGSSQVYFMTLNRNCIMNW

Structure (SMILES): CN(C(=O)CN1CCOCC1)c1ccc2sc3c(-c4cccc5c(=O)cc(N6CC7CCC(C6)O7)oc45)cccc3c2c1 [NU5455]
- inhibition at 1 µM: 4.6%
